Measured values from patent publication US10975068B2, “6-aminopyridin-3-yl thiazoles as modulators of RORγT” (Janssen Pharmaceutica NV, priority 2016, dated 2021).
Where two headings read alike, the source gives them in different places. Marks after values point to notes of the source that are not given here.

How the values were obtained:
full-length human RORγt = full-length human RORγt (Homo sapiens (Human), UniProt P51449); assay: RORγt (full-length human) reporter assay, Conditions B or C; type: cell-based; settings: for RORγt (FL) Reporter Assay B or C, % inhibition (value marked *): marked *: footnote not given
full-length human RORγt, sequence (P51449 other isoform, or with tags, fused parts or gaps): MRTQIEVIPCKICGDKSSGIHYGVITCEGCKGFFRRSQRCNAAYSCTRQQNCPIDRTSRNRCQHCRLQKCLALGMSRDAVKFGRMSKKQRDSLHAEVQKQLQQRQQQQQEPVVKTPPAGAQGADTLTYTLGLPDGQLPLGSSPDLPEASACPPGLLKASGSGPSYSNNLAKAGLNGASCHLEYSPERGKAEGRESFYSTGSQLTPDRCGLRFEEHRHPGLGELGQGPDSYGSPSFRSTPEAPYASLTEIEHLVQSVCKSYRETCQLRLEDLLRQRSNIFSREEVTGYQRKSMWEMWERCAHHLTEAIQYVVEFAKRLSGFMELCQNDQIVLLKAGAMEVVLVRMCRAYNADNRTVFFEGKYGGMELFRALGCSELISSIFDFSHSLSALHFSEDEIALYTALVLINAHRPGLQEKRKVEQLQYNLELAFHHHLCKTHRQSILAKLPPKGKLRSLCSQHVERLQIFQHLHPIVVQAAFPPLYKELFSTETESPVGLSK
Summary of the method: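 Readout is dual luciferase: firefly (GAL4-driven) normalized to DMSO-only and saturating-reference controls, then to CMV-Renilla. Full-length human RORγt fused to GAL4-DBD was transiently expressed in HEK293T; compound exposure ran overnight (16-20 h) starting 4-6 h after transfection, final FBS 1.3%, DMSO 0.1%.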

[1] = molecular target: human RORγt ligand binding domain (RORγt LBD) (Homo sapiens (Human), UniProt P51449); assay: RORγt ThermoFluor® assay (thermal shift binding); settings: read-out: ThermoFluor® Assay, Kd
human RORγt ligand binding domain (RORγt LBD), sequence (P51449 other isoform, or with tags, fused parts or gaps): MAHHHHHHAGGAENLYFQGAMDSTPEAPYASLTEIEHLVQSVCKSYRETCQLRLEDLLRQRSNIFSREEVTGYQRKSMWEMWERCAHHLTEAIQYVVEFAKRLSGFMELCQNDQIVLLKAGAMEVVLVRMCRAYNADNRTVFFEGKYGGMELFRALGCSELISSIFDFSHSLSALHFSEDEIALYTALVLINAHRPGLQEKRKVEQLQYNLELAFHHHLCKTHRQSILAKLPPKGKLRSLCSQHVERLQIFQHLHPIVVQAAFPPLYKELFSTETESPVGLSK
Summary of the method: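 Binding was inferred from thermal stabilisation (ΔTm) of the E. coli-expressed RORγt LBD (0.065 mg/mL), monitored by 1,8-ANS (60 μM) emission at 500 nm during a 1 °C/min ramp. Buffer was Hepes 100 mM pH 7.0 with NaCl, GSH and Tween-20.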

[2] = at 3 μM compound concentration, read-out: RORγt (FL) Reporter Assay B or C, % inhibition
[3] = read-out: RORγt (FL) Reporter Assay B or C, IC50
[4] = Conditions B or C, read-out: RORγt (FL) Reporter Assay B or C, IC50

| SMILES | inhibition at 3 µM (full-length human RORγt; [2]) | IC50 (full-length human RORγt; [3]) | Kd [1] | RORγt (FL) Reporter Assay B or C, % inhibition (value marked *) (full-length human RORγt; Conditions B or C) | IC50 (full-length human RORγt; [4]) | other results |
| --- | --- | --- | --- | --- | --- | --- |
| CC[C@H](Nc1cc(C(F)F)c(-c2sc(C(=O)N[C@@H](C)C(C)(C)O)nc2C(=O)N2CCC[C@@H]2C)cn1)C(F)(F)F [Example 272, 5-[4-(Difluoromethyl)-6-[[(1S)-1-(trifluoromethyl)propyl]amino]-3-pyridyl]-N-[(1S)-2-hydroxy-1,2-dimethyl-propyl]-4-[(2S)-2-methylpyrrolidine-1-carbonyl]thiazole-2-carboxamide] | 105% | 0.018 µM | 2.1 nM |  |  |  |
| C[C@H](Nc1cc(C(F)F)c(-c2sc(C(=O)N[C@H]3CC[C@@H]3O)nc2C(=O)N2CCC[C@@H]2C)cn1)C(F)(F)F (relative stereo) [Example 388, 5-(4-(Difluoromethyl)-6-(((S)-1,1,1-trifluoropropan-2-yl)amino)pyridin-3-yl)-N-((1S*,2S*)-2-hydroxycyclobutyl)-4-((S)-2-methylpyrrolidine-1-carbonyl)thiazole-2-carboxamide] | 103% | 0.085 µM | 8.6 nM |  |  |  |
| C[C@H]1CCCN1C(=O)c1nc(C(=O)N2CC[C@H](O)C2)sc1-c1cnc(NC(C)(C)C)cc1C(F)(F)F [Example 350, [5-[6-(tert-Butylamino)-4-(trifluoromethyl)-3-pyridyl]-2-[(3S)-3-hydroxypyrrolidine-1-carbonyl]thiazol-4-yl]-[(2S)-2-methylpyrrolidin-1-yl]methanone] | 110% | 0.03 µM | 8.3 nM |  |  |  |
| C[C@H]1CCCN1C(=O)c1nc(C(=O)NCC(C)(C)O)sc1-c1cnc(NCC2(C(F)(F)F)CC2)cc1C(F)(F)F [Example 125] |  |  | 2.4 nM | 100* % | 0.059 µM |  |
| CC[C@H](Nc1cc(C(F)F)c(-c2sc(C(=O)N[C@H]3CC[C@H](O)C3)nc2C(=O)N2C3CCC2CC3)cn1)C(F)(F)F [Example 151] |  |  | 0.87 nM | 104* % | 0.015 µM |  |
| C[C@H]1CCCN1C(=O)c1nc(C(=O)NCC(C)(O)C(F)(F)F)sc1-c1cnc(NC(C)(C)C)cc1C(F)(F)F (stereo partly drawn) [Example 357, 5-(6-(tert-Butylamino)-4-(trifluoromethyl)pyridin-3-yl)-4-((S)-2-methylpyrrolidine-1-carbonyl)-N-(3,3,3-trifluoro-2-hydroxy-2-methylpropyl)thiazole-2-carboxamide] | 106% | 0.012 µM | 1.2 nM |  |  |  |
| C[C@H]1CCCN1C(=O)c1nc(C(=O)NC2CCS(=O)(=O)CC2)sc1-c1cnc(NC2(C)CCC2)cc1C(F)F [Example 324, (S)-5-(4-(Difluoromethyl)-6-((1-methylcyclobutyl)amino)pyridin-3-yl)-N-(1,1-dioxidotetrahydro-2H-thiopyran-4-yl)-4-(2-methylpyrrolidine-1-carbonyl)thiazole-2-carboxamide] | 93% | 0.038 µM | 2.4 nM |  |  |  |
| CC[C@H](Nc1cc(C(F)(F)F)c(-c2sc(C(=O)N[C@@H]3COC[C@H]3O)nc2C(=O)N2CCC[C@@H]2C)cn1)C(F)(F)F [Example 170, N-((3R,4S)-4-Hydroxytetrahydrofuran-3-yl)-4-((2S)-2-methylpyrrolidine-1-carbonyl)-5-(4-(trifluoromethyl)-6-(((1S)-1-(trifluoromethyl)propyl)amino)-3-pyridyl)thiazole-2-carboxamide] |  |  | 1.9 nM | 101* % | 0.024 µM |  |
| CC(C)(C)Nc1cc(C(F)F)c(-c2sc(C(=O)N[C@H]3CCC[C@@H]3O)nc2C(=O)N2C3CCC2CC3)cn1 [Example 440, 4-((1s,4s)-7-Azabicyclo[2.2.1]heptane-7-carbonyl)-5-[6-(tert-butylamino)-4-(difluoromethyl)-3-pyridyl]-N-[(1S,2S)-2-hydroxycyclopentyl]thiazole-2-carboxamide] | 104% |  | 0.72 nM |  |  | IC50 (full-length human RORγt; RORγt (FL) Reporter Assay B or C, IC50): 0.031 µM |
| C[C@H]1CCCN1C(=O)c1nc(C(=O)N[C@@H]2CC[C@@H](O)C2)sc1-c1cnc(NC(C)(C)C)cc1C(F)F [Example 432, 5-[6-(tert-Butylamino)-4-(difluoromethyl)-3-pyridyl]-N-[(1R,3R)-3-hydroxycyclopentyl]-4-[(2S)-2-methylpyrrolidine-1-carbonyl]thiazole-2-carboxamide] |  | 0.011 µM | 1.3 nM |  |  | inhibition at 0.33 µM (full-length human RORγt; at 0.33 μM compound concentration, read-out: RORγt (FL) Reporter Assay B or C, % inhibition): 122% |
| C[C@H](CO)NC(=O)c1nc(C(=O)N2CCC[C@@H]2C)c(-c2cnc(NC(C)(C)C)cc2C(F)(F)F)s1 [Example 346, 5-[6-(tert-Butylamino)-4-(trifluoromethyl)-3-pyridyl]-N-[(1R)-2-hydroxy-1-methyl-ethyl]-4-[(2S)-2-methylpyrrolidine-1-carbonyl]thiazole-2-carboxamide] | 112% | 0.013 µM | 1.4 nM |  |  |  |
| CC[C@H](Nc1cc(C(F)F)c(-c2sc(C(=O)NCC(C)(C)O)nc2C(=O)N2C3CCC2CC3)cn1)C(F)(F)F [Example 89, 4-((1s,4s)-7-Azabicyclo[2.2.1]heptane-7-carbonyl)-5-(4-(difluoromethyl)-6-(((S)-1,1,1-trifluorobutan-2-yl)amino)pyridin-3-yl)-N-(2-hydroxy-2-methylpropyl)thiazole-2-carboxamide] |  |  | 5.2 nM | 100* % |  | IC50 (full-length human RORγt; RORγt (FL) Reporter Assay B or C, IC50 (μM), Conditions B or C): 0.024 µM |
| C[C@H]1CC(F)(F)CN1C(=O)c1nc(C(=O)N[C@@H]2COC[C@@H]2O)sc1-c1cnc(NC2(C)CCC2)cc1C(F)(F)F (relative stereo) [Example 183, 4-((S)-4,4-Difluoro-2-methylpyrrolidine-1-carbonyl)-N-((3R*,4R*)-4-hydroxytetrahydrofuran-3-yl)-5-(6-((1-methylcyclobutyl)amino)-4-(trifluoromethyl)pyridine-3-yl)thiazole-2-carboxamide] |  |  | 0.22 nM | 76* % | 0.034 µM |  |
| C[C@H]1CCCN1C(=O)c1nc(C(=O)NCC(C)(O)C(F)(F)F)sc1-c1cnc(NC(C)(C)C)cc1C(F)(F)F (single isomer, unassigned) [Example 359, 5-(6-(tert-Butylamino)-4-(trifluoromethyl)pyridin-3-yl)-4-((S)-2-methylpyrrolidine-1-carbonyl)-N—((R*)-3,3,3-trifluoro-2-hydroxy-2-methylpropyl)thiazole-2-carboxamide] |  | 0.0076 µM | 1.1 nM |  |  | RORγt (FL) Reporter Assay B or C, % inhibition (full-length human RORγt; at 3 μM compound concentration): 125* % |
| C[C@H](Nc1cc(C(F)F)c(-c2sc(C(=O)N[C@H](C)C(C)(C)O)nc2C(=O)N2C3CCC2CC3)cn1)C(F)(F)F [Example 445, 4-((1s,4s)-7-Azabicyclo[2.2.1]heptane-7-carbonyl)-5-[4-(difluoromethyl)-6-[[(1S)-2,2,2-trifluoro-1-methyl-ethyl]amino]-3-pyridyl]-N-[(1R)-2-hydroxy-1,2-dimethyl-propyl]thiazole-2-carboxamide] | 73% | 0.096 µM | 12 nM |  |  |  |
| C[C@H]1CC(F)(F)CN1C(=O)c1nc(C(=O)N[C@H]2COC[C@@H]2O)sc1-c1cnc(NC2(C)CCC2)cc1C(F)(F)F [Example 186] |  |  | 0.18 nM | 98* % | 0.016 µM |  |
| C[C@H]1CC(F)(F)CN1C(=O)c1nc(C(=O)NCC(C)(C)O)sc1-c1cnc(NCC(C)(C)C)cc1C(F)(F)F [Example 85, (S)-4-(4,4-Difluoro-2-methylpyrrolidine-1-carbonyl)-N-(2-hydroxy-2-methylpropyl)-5-(6-(neopentylamino)-4-(trifluoromethyl)pyridin-3-yl)thiazole-2-carboxamide] |  |  | 0.53 nM |  | 0.027 µM | RORγt (FL) Reporter Assay B or C, % inhibition (value marked ***) (full-length human RORγt; Conditions B or C, marked ***: footnote not given): 128*** % |
| C[C@H]1CCCN1C(=O)c1nc(C(=O)NC2(C)COC2)sc1-c1cnc(NC(C)(C)C)cc1C(F)(F)F [Example 253, 5-[6-(tert-Butylamino)-4-(trifluoromethyl)-3-pyridyl]-N-(3-methyloxetan-3-yl)-4-[(2S)-2-methylpyrrolidine-1-carbonyl]thiazole-2-carboxamide] | 108% | 0.0077 µM | 1.9 nM |  |  |  |
| C[C@H]1CCCN1C(=O)c1nc(C(=O)N[C@H]2C[C@H](O)C2)sc1-c1cnc(NC2CCCC2)cc1C(F)F [Example 74, 5-(6-(Cyclopentylamino)-4-(difluoromethyl)pyridin-3-yl)-N-((1r,3s)-3-hydroxycyclobutyl)-4-((S)-2-methylpyrrolidine-1-carbonyl)thiazole-2-carboxamide] |  |  | 73 nM | 101* % | 0.032 µM |  |
| O=C(N[C@H]1CCC[C@@H]1O)c1nc(C(=O)N2C3CCC2CC3)c(-c2cnc(N[C@@H](C3CC3)C(F)(F)F)cc2C(F)F)s1 [Example 451, 4-(7-Azabicyclo[2.2.1]heptane-7-carbonyl)-5-[6-[[(1S)-1-cyclopropyl-2,2,2-trifluoro-ethyl]amino]-4-(difluoromethyl)-3-pyridyl]-N-[(1S,2S)-2-hydroxycyclopentyl]thiazole-2-carboxamide] | 99% | 0.29 µM | 0.29 nM |  |  |  |
